Reference: paper PMC3670929, “Zn(II)-Chlorido Complexes of Phytohormone Kinetin and Its Derivatives Modulate Expression of Inflammatory Mediators in THP-1 Cells” (PLoS ONE, 2013)

Tested on: IL-1β
Test: LPS-induced IL-1β secretion in THP-1 macrophage-like cells (ELISA)
Format: cell-based, human
Settings: complexes 5 µM, prednisone 1 µM, 1 h pre-treatment, 24 h after LPS
Method: To determine the influence of the tested complexes on the TNF-α and IL-1β secretions and MMPs activity, macrophage-like cells derived from the THP-1 cell line were used. The cells were cultivated as above, but were split into 24-well microtitre plates to get a concentration of 100 000 cells/mL (1 mL/well) and the differentiation to macrophages was induced by phorbol myristate acetate (PMA) as described previously. Differentiated macrophages were pre-treated for 1 h with 5 µM solutions of the tested complexes or 1 µM prednisone dissolved in DMSO [the final DMSO concentration was 0.1% (v/v)] and with the 0.1% (v/v) DMSO solution itself (the experimental group called vehicle); the given concentrations of the compounds lack the cytotoxic effect. The inflammatory response was triggered by adding 1 µg/mL Escherichia coli 0111:B4 lipopolysaccharide (LPS) (Sigma-Aldrich, Germany) dissolved in water to pre-treated macrophages, control cells were without the LPS treatment. Each experiment was performed in triplicate. Macrophages, which were pre-treated with the tested compounds for 1 h, were incubated with LPS for the next 24 h. Then, the medium was collected and the concentrations of TNF-α and IL-1β were measured by an Instant ELISA kit (eBioscience, Austria) according to the manufacturer’s manual.

C[C@]12C=CC(=O)C=C1CC[C@@H]1[C@@H]2C(=O)C[C@@]2(C)[C@H]1CC[C@]2(O)C(=O)CO [prednisone, reference compound]
decrease of IL-1β secretion, factor in comparison with the vehicle-treated cells: 2.42 times
